Experimental data taken from ChEMBL document CHEMBL1137154, “Phenylethanolamine N-methyltransferase inhibition: re-evaluation of kinetic data” (Bioorg Med Chem Lett, 2004).

Biological target: T1, Phenylethanolamine N-methyltransferase (Homo sapiens, UniProt P11086)
T1 sequence (P11086 whole entry): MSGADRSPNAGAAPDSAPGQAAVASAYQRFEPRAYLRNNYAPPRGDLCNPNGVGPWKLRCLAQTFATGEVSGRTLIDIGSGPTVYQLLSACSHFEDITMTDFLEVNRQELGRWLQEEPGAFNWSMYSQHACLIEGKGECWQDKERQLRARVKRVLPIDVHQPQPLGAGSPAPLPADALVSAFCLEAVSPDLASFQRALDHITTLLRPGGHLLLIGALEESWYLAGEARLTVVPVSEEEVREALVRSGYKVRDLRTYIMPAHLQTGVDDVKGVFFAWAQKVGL
Assay: Inhibitory binding affinity for phenylethanolamine N-methyl-transferase (PNMT)

SMILES: CC(N)c1cccc(Cl)c1Cl (stereo unspecified)
- Ki: 90 nM
